The values below are quoted from earlier work in patent US6107271A, “Neuroactive peptides” (NYXIS Neuro Therapies, Inc., priority 1998, dated 2000).

Structures are written as SMILES.

This series has as its system rabbits. The following applies: peripheral injections; cited from earlier work.

For the compound `N[C@@H]1CONC1=O` [D-cycloserine], the “learning rates in trace eyeblink conditioning” value is listed as “doubled”.
